Laboratory results as given in publication doi:10.1101/2023.10.20.563248v1 (biorxiv, 2023).

What was measured:
Conditions in all cases: 1 µM; inhibitor
[1] = biological target: LKB1/MO25a/STRADa (Homo sapiens, UniProt Q15831)
[2] = biological target: HRI (Homo sapiens, UniProt Q9BQI3)
[3] = biological target: PAK2 (Homo sapiens, UniProt Q13177)
[4] = biological target: IRAK4 (Homo sapiens, UniProt Q9NWZ3)
[5] = biological target: DYRK3 (Homo sapiens, UniProt O43781)
[6] = biological target: TIE2 (Homo sapiens, UniProt Q02763)
[7] = biological target: PASK (Homo sapiens, UniProt Q96RG2)
Chain of PASK (Q96RG2 whole entry): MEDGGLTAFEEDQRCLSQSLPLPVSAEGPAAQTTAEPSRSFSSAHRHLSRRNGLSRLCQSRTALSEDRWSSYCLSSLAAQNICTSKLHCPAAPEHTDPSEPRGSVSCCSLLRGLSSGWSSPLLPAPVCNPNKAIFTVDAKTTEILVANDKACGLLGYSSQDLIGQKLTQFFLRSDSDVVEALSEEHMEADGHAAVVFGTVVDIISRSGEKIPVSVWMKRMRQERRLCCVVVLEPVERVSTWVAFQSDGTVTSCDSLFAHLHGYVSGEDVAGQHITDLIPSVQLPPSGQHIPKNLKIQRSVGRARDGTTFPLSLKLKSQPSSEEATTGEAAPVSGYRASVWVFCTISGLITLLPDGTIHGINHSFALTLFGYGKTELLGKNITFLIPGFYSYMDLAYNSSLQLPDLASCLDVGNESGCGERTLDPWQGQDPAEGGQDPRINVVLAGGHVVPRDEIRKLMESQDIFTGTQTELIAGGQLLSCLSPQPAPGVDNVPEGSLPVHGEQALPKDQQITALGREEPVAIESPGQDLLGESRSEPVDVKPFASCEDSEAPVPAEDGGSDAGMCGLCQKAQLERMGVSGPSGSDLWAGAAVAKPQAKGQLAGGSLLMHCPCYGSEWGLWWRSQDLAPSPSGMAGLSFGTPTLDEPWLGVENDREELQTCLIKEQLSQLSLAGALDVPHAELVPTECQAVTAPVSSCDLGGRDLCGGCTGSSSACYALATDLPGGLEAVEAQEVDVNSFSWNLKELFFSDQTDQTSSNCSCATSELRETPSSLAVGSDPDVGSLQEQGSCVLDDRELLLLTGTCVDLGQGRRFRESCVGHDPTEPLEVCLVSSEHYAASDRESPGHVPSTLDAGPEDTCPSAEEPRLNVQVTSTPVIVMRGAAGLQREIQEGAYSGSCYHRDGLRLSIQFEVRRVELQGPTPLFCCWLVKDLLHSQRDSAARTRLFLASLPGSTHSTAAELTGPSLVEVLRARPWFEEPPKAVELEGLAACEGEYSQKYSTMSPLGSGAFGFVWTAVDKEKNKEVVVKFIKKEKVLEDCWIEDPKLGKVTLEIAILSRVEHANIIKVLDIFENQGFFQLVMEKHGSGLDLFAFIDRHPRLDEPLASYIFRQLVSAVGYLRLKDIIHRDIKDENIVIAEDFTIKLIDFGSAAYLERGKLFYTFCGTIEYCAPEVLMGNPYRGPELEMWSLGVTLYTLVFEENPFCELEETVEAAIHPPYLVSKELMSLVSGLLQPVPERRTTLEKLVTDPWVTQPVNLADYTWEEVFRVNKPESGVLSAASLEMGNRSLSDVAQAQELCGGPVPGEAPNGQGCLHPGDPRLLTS

[8] = biological target: BUB1B (Homo sapiens, UniProt O60566)
[9] = biological target: CAMK2G (Homo sapiens, UniProt Q13555)
Chain of CAMK2G (Q13555 whole entry): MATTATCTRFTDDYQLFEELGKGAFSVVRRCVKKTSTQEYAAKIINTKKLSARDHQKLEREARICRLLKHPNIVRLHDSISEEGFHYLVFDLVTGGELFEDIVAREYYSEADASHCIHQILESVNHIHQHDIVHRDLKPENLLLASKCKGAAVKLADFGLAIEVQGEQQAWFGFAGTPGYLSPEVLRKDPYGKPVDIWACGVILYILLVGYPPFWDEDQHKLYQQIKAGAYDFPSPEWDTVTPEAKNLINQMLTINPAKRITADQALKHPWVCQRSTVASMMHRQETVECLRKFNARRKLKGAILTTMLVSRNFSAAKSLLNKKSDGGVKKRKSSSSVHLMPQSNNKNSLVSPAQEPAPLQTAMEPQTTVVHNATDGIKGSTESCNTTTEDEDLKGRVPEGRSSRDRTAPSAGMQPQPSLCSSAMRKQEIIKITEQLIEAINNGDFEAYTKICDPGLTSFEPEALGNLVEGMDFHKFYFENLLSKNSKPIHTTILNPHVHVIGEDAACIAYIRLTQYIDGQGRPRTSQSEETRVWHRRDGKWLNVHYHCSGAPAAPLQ

[10] = biological target: EGFR (Homo sapiens, UniProt P00533)
[11] = biological target: LRRK2 (Homo sapiens, UniProt Q5S007)
[12] = biological target: EPHB3 (Homo sapiens, UniProt P54753)
[13] = biological target: CDC42BPB (Homo sapiens, UniProt Q9Y5S2)
[14] = biological target: CDK13 (Homo sapiens, UniProt Q14004)
[15] = biological target: PRK2 (Homo sapiens, UniProt Q16513)
[16] = biological target: CK1e (Homo sapiens, UniProt P49674)
[17] = biological target: ACK1 (Homo sapiens, UniProt Q07912)
[18] = biological target: PBK (Homo sapiens, UniProt Q96KB5)
[19] = biological target: PKCnu (Homo sapiens, UniProt O94806)
Chain of PKCnu (O94806 whole entry): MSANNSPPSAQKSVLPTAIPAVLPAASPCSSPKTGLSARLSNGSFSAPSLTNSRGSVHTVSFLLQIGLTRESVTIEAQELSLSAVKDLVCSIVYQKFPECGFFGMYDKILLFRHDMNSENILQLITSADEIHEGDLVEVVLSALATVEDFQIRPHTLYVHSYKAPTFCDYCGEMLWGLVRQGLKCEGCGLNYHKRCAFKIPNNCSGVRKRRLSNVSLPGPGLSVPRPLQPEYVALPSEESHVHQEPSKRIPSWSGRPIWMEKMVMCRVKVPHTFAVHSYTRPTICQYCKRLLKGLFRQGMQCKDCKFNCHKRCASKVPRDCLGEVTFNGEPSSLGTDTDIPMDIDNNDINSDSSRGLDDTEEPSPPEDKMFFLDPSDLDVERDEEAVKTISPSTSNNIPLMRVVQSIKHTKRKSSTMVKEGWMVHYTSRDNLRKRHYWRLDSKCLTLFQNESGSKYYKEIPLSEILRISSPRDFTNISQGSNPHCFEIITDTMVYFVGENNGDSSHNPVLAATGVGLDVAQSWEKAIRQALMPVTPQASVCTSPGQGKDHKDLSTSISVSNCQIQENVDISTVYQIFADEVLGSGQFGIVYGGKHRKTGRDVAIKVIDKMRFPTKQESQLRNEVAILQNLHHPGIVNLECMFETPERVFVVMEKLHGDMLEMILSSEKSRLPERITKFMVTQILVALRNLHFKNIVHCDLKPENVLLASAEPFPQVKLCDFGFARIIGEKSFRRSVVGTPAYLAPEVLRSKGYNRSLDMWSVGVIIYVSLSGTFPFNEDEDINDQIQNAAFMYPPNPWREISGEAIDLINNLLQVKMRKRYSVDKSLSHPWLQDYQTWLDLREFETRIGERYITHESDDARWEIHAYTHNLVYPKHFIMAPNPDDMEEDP

[20] = biological target: PHKG1 (Homo sapiens, UniProt Q16816)
[21] = biological target: LIMK1 (Homo sapiens, UniProt P53667)
[22] = biological target: CDK6 (Homo sapiens, UniProt Q00534)
[23] = biological target: LYN (Homo sapiens, UniProt P07948)
[24] = biological target: SRC (Homo sapiens, UniProt P12931)
[25] = biological target: CDK5 (Homo sapiens, UniProt Q00535)
[26] = biological target: TTK (Homo sapiens, UniProt P33981)
[27] = biological target: MAPKAPK5 (Homo sapiens, UniProt Q8IW41)
[28] = biological target: MINK1 (Homo sapiens, UniProt Q8N4C8)
[29] = biological target: CDC42BPA (Homo sapiens, UniProt Q5VT25)
Chain of CDC42BPA (Q5VT25 whole entry): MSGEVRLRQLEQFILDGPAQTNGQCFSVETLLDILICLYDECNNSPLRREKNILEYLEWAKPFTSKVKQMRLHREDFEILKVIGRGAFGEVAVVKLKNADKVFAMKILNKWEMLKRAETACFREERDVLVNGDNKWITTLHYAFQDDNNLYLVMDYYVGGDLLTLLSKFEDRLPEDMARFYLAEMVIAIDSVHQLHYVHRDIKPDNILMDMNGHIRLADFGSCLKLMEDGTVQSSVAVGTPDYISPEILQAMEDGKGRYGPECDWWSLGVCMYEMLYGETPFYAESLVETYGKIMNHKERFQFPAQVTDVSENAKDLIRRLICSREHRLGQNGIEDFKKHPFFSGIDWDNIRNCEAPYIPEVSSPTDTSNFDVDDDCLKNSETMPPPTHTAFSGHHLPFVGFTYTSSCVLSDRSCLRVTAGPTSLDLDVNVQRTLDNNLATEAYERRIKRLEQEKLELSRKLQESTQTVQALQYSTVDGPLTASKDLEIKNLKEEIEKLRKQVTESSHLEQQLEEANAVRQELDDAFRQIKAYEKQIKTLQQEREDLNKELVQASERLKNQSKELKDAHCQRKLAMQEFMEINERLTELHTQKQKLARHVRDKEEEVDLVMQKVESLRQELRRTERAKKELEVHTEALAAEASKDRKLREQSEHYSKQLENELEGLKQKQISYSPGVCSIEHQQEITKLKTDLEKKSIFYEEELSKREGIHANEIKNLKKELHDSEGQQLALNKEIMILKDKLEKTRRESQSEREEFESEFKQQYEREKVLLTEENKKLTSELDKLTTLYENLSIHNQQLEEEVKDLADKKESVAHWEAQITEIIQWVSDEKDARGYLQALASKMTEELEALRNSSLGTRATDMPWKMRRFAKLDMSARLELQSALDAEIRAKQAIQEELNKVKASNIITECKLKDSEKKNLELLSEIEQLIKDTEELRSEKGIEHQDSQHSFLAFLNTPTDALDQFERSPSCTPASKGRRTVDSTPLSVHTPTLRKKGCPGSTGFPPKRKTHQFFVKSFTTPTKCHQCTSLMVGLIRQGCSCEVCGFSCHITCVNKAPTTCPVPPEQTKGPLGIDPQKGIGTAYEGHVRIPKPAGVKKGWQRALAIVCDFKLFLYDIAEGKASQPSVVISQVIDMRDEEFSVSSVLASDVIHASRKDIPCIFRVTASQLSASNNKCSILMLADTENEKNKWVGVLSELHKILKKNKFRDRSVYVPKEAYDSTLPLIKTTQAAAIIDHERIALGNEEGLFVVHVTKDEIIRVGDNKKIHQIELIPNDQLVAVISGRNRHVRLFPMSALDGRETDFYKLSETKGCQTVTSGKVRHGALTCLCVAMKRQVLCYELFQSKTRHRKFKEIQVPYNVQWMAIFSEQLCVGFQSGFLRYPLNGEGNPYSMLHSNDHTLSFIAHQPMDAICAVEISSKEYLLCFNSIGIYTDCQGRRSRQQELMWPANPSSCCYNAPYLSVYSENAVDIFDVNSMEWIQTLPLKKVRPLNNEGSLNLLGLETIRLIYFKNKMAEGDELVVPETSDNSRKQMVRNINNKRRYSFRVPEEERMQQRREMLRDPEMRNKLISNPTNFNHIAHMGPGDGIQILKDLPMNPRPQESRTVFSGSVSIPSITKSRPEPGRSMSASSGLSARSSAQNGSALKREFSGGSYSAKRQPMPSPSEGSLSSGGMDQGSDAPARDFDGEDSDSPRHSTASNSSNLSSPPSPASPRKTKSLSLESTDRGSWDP

[30] = biological target: MYLK (Homo sapiens, UniProt Q15746)
[31] = biological target: JAK2 (Homo sapiens, UniProt O60674)

Chain of PAK2 (Q13177 whole entry): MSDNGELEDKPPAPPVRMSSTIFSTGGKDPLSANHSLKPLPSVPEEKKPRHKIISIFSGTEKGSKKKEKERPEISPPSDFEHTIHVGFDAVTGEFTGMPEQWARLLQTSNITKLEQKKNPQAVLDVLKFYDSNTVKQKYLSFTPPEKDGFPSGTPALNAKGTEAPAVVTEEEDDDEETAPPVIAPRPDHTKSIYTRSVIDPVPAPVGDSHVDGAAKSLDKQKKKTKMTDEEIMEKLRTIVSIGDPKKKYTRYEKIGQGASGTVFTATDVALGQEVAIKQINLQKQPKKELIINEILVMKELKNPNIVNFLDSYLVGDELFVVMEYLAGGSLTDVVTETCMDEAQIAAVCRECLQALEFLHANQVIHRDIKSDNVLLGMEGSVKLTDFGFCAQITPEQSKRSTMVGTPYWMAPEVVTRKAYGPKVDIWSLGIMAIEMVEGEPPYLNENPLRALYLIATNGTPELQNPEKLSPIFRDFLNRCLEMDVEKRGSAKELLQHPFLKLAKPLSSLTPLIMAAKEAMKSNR

21c Remaining activity, percent of control [%] [1]: 105.1%
21c Remaining activity, percent of control [%] [2]: 98.2%
21c Remaining activity, percent of control [%] [3]: 113.2%
21c Remaining activity, percent of control [%] [4]: 87.3%
21c Remaining activity, percent of control [%] [5]: 96.4%
21c Remaining activity, percent of control [%] [6]: 116.9%
21c Remaining activity, percent of control [%] [7]: 100.8%
21c Remaining activity, percent of control [%] [8]: 101.6%
21c Remaining activity, percent of control [%] [9]: 132.6%
21c Remaining activity, percent of control [%] [10]: 100.0%
21c Remaining activity, percent of control [%] [11]: 90.3%
21c Remaining activity, percent of control [%] [12]: 105.4%
21c Remaining activity, percent of control [%] [13]: 106.6%
21c Remaining activity, percent of control [%] [14]: 101.2%
21c Remaining activity, percent of control [%] [15]: 89.5%
21c Remaining activity, percent of control [%] [16]: 103.1%
21c Remaining activity, percent of control [%] [17]: 79.8%
21c Remaining activity, percent of control [%] [18]: 98.8%
21c Remaining activity, percent of control [%] [19]: 78.1%
21c Remaining activity, percent of control [%] [20]: 98.0%
21c Remaining activity, percent of control [%] [21]: 36.6%
21c Remaining activity, percent of control [%] [22]: 105.2%
21c Remaining activity, percent of control [%] [23]: 139.3%
21c Remaining activity, percent of control [%] [24]: 94.8%
21c Remaining activity, percent of control [%] [25]: 101.3%
21c Remaining activity, percent of control [%] [26]: 97.7%
21c Remaining activity, percent of control [%] [27]: 110.4%
21c Remaining activity, percent of control [%] [28]: 70.0%
21c Remaining activity, percent of control [%] [29]: 107.0%
21c Remaining activity, percent of control [%] [30]: 68.9%
21c Remaining activity, percent of control [%] [31]: 96.2%
Compound: O=C1NCCCCCNc2nc(c3ccccc3n2)Nc2cc1[nH]n2 [21c, (Z)-3^1H-2,5,11-triaza-1(4,2)-quinazolina-3(3,5)-pyrazolacycloundecaphan-4-one]
